From PubChem BioAssay AID1963980 (Molecular Pharmacology Branch, DTP, NCI, 2024)
pIC50: −log10 of the molar value.

System: 475296-252-R-J1-PDC spheroid viability
Assay: Anticancer human tumor 475296-252-R-J1-PDC patient-derived rectal carcinoma cell line growth inhibition [PI3K]
Conditions: curve of first compound; second compound 0.00316 µM; spheroids with HUVEC and MSC
Outline: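 Agents were dosed from a top concentration near clinical Cmax (otherwise 10 microM) in half-log decrements, alone or combined with PI3K inhibitors. The spheroids contain tumor cells plus endothelial (HUVEC) and MSC stroma; viability is measured.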
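Further: spheroids exposed to agents for seven days before readout.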

How did the pIC50 turn out when `C=CC(=O)N1CCN(c2nc(=O)n(-c3c(C)ccnc3C(C)C)c3nc(-c4c(O)cccc4F)c(F)cc23)C(C)C1` (configuration not stated) + CC(Nc1ccc2c(c1)OCCn1cc(N3C(=O)OCC3C(F)F)nc1-2)C(N)=O was run?
Its pIC50 is less than 5.00.

`CCN1CCN(Cc2ccc(Nc3ncc(F)c(-c4cc(F)c5nc(C)n(C(C)C)c5c4)n3)nc2)CC1` + CC(Nc1ccc2c(c1)OCCn1cc(N3C(=O)OCC3C(F)F)nc1-2)C(N)=O was tested. Which pIC50 did it give?
The pIC50 was less than 6.00.

With `Cn1ncc(Cl)c1-c1cc(C(=O)NC(CN)Cc2cccc(F)c2)sc1Cl` (configuration not stated) + CC(Nc1ccc2c(c1)OCCn1cc(N3C(=O)OCC3C(F)F)nc1-2)C(N)=O as the molecule, how does the pIC50 read?
The pIC50 was less than 5.00.

How did the pIC50 turn out when `Cn1nccc1Nc1nccc(-c2ccn(C(CO)c3ccc(Cl)c(F)c3)c(=O)c2)n1` (configuration not stated) + CC(Nc1ccc2c(c1)OCCn1cc(N3C(=O)OCC3C(F)F)nc1-2)C(N)=O was run?
Its pIC50 is less than 5.00.

Same assay, conditions: curve of first compound; second compound 0.01 µM; spheroids with HUVEC and MSC

How did the pIC50 turn out when `C=CC(=O)N1CCN(c2nc(=O)n(-c3c(C)ccnc3C(C)C)c3nc(-c4c(O)cccc4F)c(F)cc23)C(C)C1` (configuration not stated) + CC(Nc1ccc2c(c1)OCCn1cc(N3C(=O)OCC3C(F)F)nc1-2)C(N)=O was run?
Its pIC50 is less than 5.00.

How did the pIC50 turn out when `CCN1CCN(Cc2ccc(Nc3ncc(F)c(-c4cc(F)c5nc(C)n(C(C)C)c5c4)n3)nc2)CC1` + CC(Nc1ccc2c(c1)OCCn1cc(N3C(=O)OCC3C(F)F)nc1-2)C(N)=O was run?
The pIC50 was less than 6.00.

With `Cn1ncc(Cl)c1-c1cc(C(=O)NC(CN)Cc2cccc(F)c2)sc1Cl` (configuration not stated) + CC(Nc1ccc2c(c1)OCCn1cc(N3C(=O)OCC3C(F)F)nc1-2)C(N)=O as the molecule, how does the pIC50 read?
Its pIC50 is less than 5.00.

`Cn1nccc1Nc1nccc(-c2ccn(C(CO)c3ccc(Cl)c(F)c3)c(=O)c2)n1` (configuration not stated) + CC(Nc1ccc2c(c1)OCCn1cc(N3C(=O)OCC3C(F)F)nc1-2)C(N)=O was tested. Which pIC50 did it give?
Its pIC50 is less than 5.00.

Same assay, conditions: curve of first compound; second compound 0.0316 µM; spheroids with HUVEC and MSC

With `C=CC(=O)N1CCN(c2nc(=O)n(-c3c(C)ccnc3C(C)C)c3nc(-c4c(O)cccc4F)c(F)cc23)C(C)C1` (configuration not stated) + CC(Nc1ccc2c(c1)OCCn1cc(N3C(=O)OCC3C(F)F)nc1-2)C(N)=O as the molecule, how does the pIC50 read?
The pIC50 was less than 5.00.

`CCN1CCN(Cc2ccc(Nc3ncc(F)c(-c4cc(F)c5nc(C)n(C(C)C)c5c4)n3)nc2)CC1` + CC(Nc1ccc2c(c1)OCCn1cc(N3C(=O)OCC3C(F)F)nc1-2)C(N)=O was tested. Which pIC50 did it give?
The pIC50 was less than 6.00.

`Cn1ncc(Cl)c1-c1cc(C(=O)NC(CN)Cc2cccc(F)c2)sc1Cl` (configuration not stated) + CC(Nc1ccc2c(c1)OCCn1cc(N3C(=O)OCC3C(F)F)nc1-2)C(N)=O was tested. Which pIC50 did it give?
The pIC50 was less than 5.00.

How did the pIC50 turn out when `Cn1nccc1Nc1nccc(-c2ccn(C(CO)c3ccc(Cl)c(F)c3)c(=O)c2)n1` (configuration not stated) + CC(Nc1ccc2c(c1)OCCn1cc(N3C(=O)OCC3C(F)F)nc1-2)C(N)=O was run?
The pIC50 was less than 5.00.

Same assay, conditions: curve of first compound; second compound 0.1 µM; spheroids with HUVEC and MSC

How did the pIC50 turn out when `C=CC(=O)N1CCN(c2nc(=O)n(-c3c(C)ccnc3C(C)C)c3nc(-c4c(O)cccc4F)c(F)cc23)C(C)C1` (configuration not stated) + CC(Nc1ccc2c(c1)OCCn1cc(N3C(=O)OCC3C(F)F)nc1-2)C(N)=O was run?
The pIC50 was less than 5.00.

`CCN1CCN(Cc2ccc(Nc3ncc(F)c(-c4cc(F)c5nc(C)n(C(C)C)c5c4)n3)nc2)CC1` + CC(Nc1ccc2c(c1)OCCn1cc(N3C(=O)OCC3C(F)F)nc1-2)C(N)=O was tested. Which pIC50 did it give?
Its pIC50 is less than 6.00.

With `Cn1ncc(Cl)c1-c1cc(C(=O)NC(CN)Cc2cccc(F)c2)sc1Cl` (configuration not stated) + CC(Nc1ccc2c(c1)OCCn1cc(N3C(=O)OCC3C(F)F)nc1-2)C(N)=O as the molecule, how does the pIC50 read?
The pIC50 was less than 5.00.

How did the pIC50 turn out when `Cn1nccc1Nc1nccc(-c2ccn(C(CO)c3ccc(Cl)c(F)c3)c(=O)c2)n1` (configuration not stated) + CC(Nc1ccc2c(c1)OCCn1cc(N3C(=O)OCC3C(F)F)nc1-2)C(N)=O was run?
The pIC50 was less than 5.00.

Same assay, conditions: curve of first compound; second compound 0.316 µM; spheroids with HUVEC and MSC

How did the pIC50 turn out when `C=CC(=O)N1CCN(c2nc(=O)n(-c3c(C)ccnc3C(C)C)c3nc(-c4c(O)cccc4F)c(F)cc23)C(C)C1` (configuration not stated) + CC(Nc1ccc2c(c1)OCCn1cc(N3C(=O)OCC3C(F)F)nc1-2)C(N)=O was run?
Its pIC50 is less than 5.00.

How did the pIC50 turn out when `CCN1CCN(Cc2ccc(Nc3ncc(F)c(-c4cc(F)c5nc(C)n(C(C)C)c5c4)n3)nc2)CC1` + CC(Nc1ccc2c(c1)OCCn1cc(N3C(=O)OCC3C(F)F)nc1-2)C(N)=O was run?
The pIC50 was less than 6.00.

How did the pIC50 turn out when `Cn1ncc(Cl)c1-c1cc(C(=O)NC(CN)Cc2cccc(F)c2)sc1Cl` (configuration not stated) + CC(Nc1ccc2c(c1)OCCn1cc(N3C(=O)OCC3C(F)F)nc1-2)C(N)=O was run?
The pIC50 was less than 5.00.

With `Cn1nccc1Nc1nccc(-c2ccn(C(CO)c3ccc(Cl)c(F)c3)c(=O)c2)n1` (configuration not stated) + CC(Nc1ccc2c(c1)OCCn1cc(N3C(=O)OCC3C(F)F)nc1-2)C(N)=O as the molecule, how does the pIC50 read?
Its pIC50 is 5.19.

Same assay, conditions: curve of first compound; second compound 1 µM; spheroids with HUVEC and MSC

`C=CC(=O)N1CCN(c2nc(=O)n(-c3c(C)ccnc3C(C)C)c3nc(-c4c(O)cccc4F)c(F)cc23)C(C)C1` (configuration not stated) + CC(Nc1ccc2c(c1)OCCn1cc(N3C(=O)OCC3C(F)F)nc1-2)C(N)=O was tested. Which pIC50 did it give?
The pIC50 was less than 5.00.

`CCN1CCN(Cc2ccc(Nc3ncc(F)c(-c4cc(F)c5nc(C)n(C(C)C)c5c4)n3)nc2)CC1` + CC(Nc1ccc2c(c1)OCCn1cc(N3C(=O)OCC3C(F)F)nc1-2)C(N)=O was tested. Which pIC50 did it give?
Its pIC50 is less than 6.00.

How did the pIC50 turn out when `Cn1ncc(Cl)c1-c1cc(C(=O)NC(CN)Cc2cccc(F)c2)sc1Cl` (configuration not stated) + CC(Nc1ccc2c(c1)OCCn1cc(N3C(=O)OCC3C(F)F)nc1-2)C(N)=O was run?
Its pIC50 is 5.26.

How did the pIC50 turn out when `Cn1nccc1Nc1nccc(-c2ccn(C(CO)c3ccc(Cl)c(F)c3)c(=O)c2)n1` (configuration not stated) + CC(Nc1ccc2c(c1)OCCn1cc(N3C(=O)OCC3C(F)F)nc1-2)C(N)=O was run?
Its pIC50 is 5.45.

Same assay, conditions: second compound 0.00316 µM; first compound 0.00316 µM; stronger effect = lower value; spheroids with HUVEC and MSC

With `CCN1CCN(Cc2ccc(Nc3ncc(F)c(-c4cc(F)c5nc(C)n(C(C)C)c5c4)n3)nc2)CC1` + CC(Nc1ccc2c(c1)OCCn1cc(N3C(=O)OCC3C(F)F)nc1-2)C(N)=O as the molecule, how does the viability, T/C read?
The viability, T/C was 97.2%.

Same assay, conditions: second compound 0.00316 µM; first compound 0.01 µM; stronger effect = lower value; spheroids with HUVEC and MSC

Which viability, T/C does the source give for `CCN1CCN(Cc2ccc(Nc3ncc(F)c(-c4cc(F)c5nc(C)n(C(C)C)c5c4)n3)nc2)CC1` + CC(Nc1ccc2c(c1)OCCn1cc(N3C(=O)OCC3C(F)F)nc1-2)C(N)=O here?
Its viability, T/C is 82.2%.

Same assay, conditions: second compound 0.00316 µM; first compound 0.0316 µM; stronger effect = lower value; spheroids with HUVEC and MSC

With `C=CC(=O)N1CCN(c2nc(=O)n(-c3c(C)ccnc3C(C)C)c3nc(-c4c(O)cccc4F)c(F)cc23)C(C)C1` (configuration not stated) + CC(Nc1ccc2c(c1)OCCn1cc(N3C(=O)OCC3C(F)F)nc1-2)C(N)=O as the molecule, how does the viability, T/C read?
The viability, T/C was 83.8%.

With `CCN1CCN(Cc2ccc(Nc3ncc(F)c(-c4cc(F)c5nc(C)n(C(C)C)c5c4)n3)nc2)CC1` + CC(Nc1ccc2c(c1)OCCn1cc(N3C(=O)OCC3C(F)F)nc1-2)C(N)=O as the molecule, how does the viability, T/C read?
The viability, T/C was 94%.

`Cn1ncc(Cl)c1-c1cc(C(=O)NC(CN)Cc2cccc(F)c2)sc1Cl` (configuration not stated) + CC(Nc1ccc2c(c1)OCCn1cc(N3C(=O)OCC3C(F)F)nc1-2)C(N)=O was tested. Which viability, T/C did it give?
The viability, T/C was 87.7%.

How did the viability, T/C turn out when `Cn1nccc1Nc1nccc(-c2ccn(C(CO)c3ccc(Cl)c(F)c3)c(=O)c2)n1` (configuration not stated) + CC(Nc1ccc2c(c1)OCCn1cc(N3C(=O)OCC3C(F)F)nc1-2)C(N)=O was run?
Its viability, T/C is 92.9%.

Same assay, conditions: second compound 0.00316 µM; first compound 0.1 µM; stronger effect = lower value; spheroids with HUVEC and MSC

Which viability, T/C does the source give for `C=CC(=O)N1CCN(c2nc(=O)n(-c3c(C)ccnc3C(C)C)c3nc(-c4c(O)cccc4F)c(F)cc23)C(C)C1` (configuration not stated) + CC(Nc1ccc2c(c1)OCCn1cc(N3C(=O)OCC3C(F)F)nc1-2)C(N)=O here?
The viability, T/C was 89.9%.

With `CCN1CCN(Cc2ccc(Nc3ncc(F)c(-c4cc(F)c5nc(C)n(C(C)C)c5c4)n3)nc2)CC1` + CC(Nc1ccc2c(c1)OCCn1cc(N3C(=O)OCC3C(F)F)nc1-2)C(N)=O as the molecule, how does the viability, T/C read?
The viability, T/C was 86.2%.

`Cn1ncc(Cl)c1-c1cc(C(=O)NC(CN)Cc2cccc(F)c2)sc1Cl` (configuration not stated) + CC(Nc1ccc2c(c1)OCCn1cc(N3C(=O)OCC3C(F)F)nc1-2)C(N)=O was tested. Which viability, T/C did it give?
Its viability, T/C is 68.7%.

With `Cn1nccc1Nc1nccc(-c2ccn(C(CO)c3ccc(Cl)c(F)c3)c(=O)c2)n1` (configuration not stated) + CC(Nc1ccc2c(c1)OCCn1cc(N3C(=O)OCC3C(F)F)nc1-2)C(N)=O as the molecule, how does the viability, T/C read?
Its viability, T/C is 92.8%.

Same assay, conditions: second compound 0.00316 µM; first compound 0.316 µM; stronger effect = lower value; spheroids with HUVEC and MSC

Which viability, T/C does the source give for `C=CC(=O)N1CCN(c2nc(=O)n(-c3c(C)ccnc3C(C)C)c3nc(-c4c(O)cccc4F)c(F)cc23)C(C)C1` (configuration not stated) + CC(Nc1ccc2c(c1)OCCn1cc(N3C(=O)OCC3C(F)F)nc1-2)C(N)=O here?
The viability, T/C was 89.4%.

`CCN1CCN(Cc2ccc(Nc3ncc(F)c(-c4cc(F)c5nc(C)n(C(C)C)c5c4)n3)nc2)CC1` + CC(Nc1ccc2c(c1)OCCn1cc(N3C(=O)OCC3C(F)F)nc1-2)C(N)=O was tested. Which viability, T/C did it give?
Its viability, T/C is 101%.

`Cn1ncc(Cl)c1-c1cc(C(=O)NC(CN)Cc2cccc(F)c2)sc1Cl` (configuration not stated) + CC(Nc1ccc2c(c1)OCCn1cc(N3C(=O)OCC3C(F)F)nc1-2)C(N)=O was tested. Which viability, T/C did it give?
Its viability, T/C is 76.2%.

With `Cn1nccc1Nc1nccc(-c2ccn(C(CO)c3ccc(Cl)c(F)c3)c(=O)c2)n1` (configuration not stated) + CC(Nc1ccc2c(c1)OCCn1cc(N3C(=O)OCC3C(F)F)nc1-2)C(N)=O as the molecule, how does the viability, T/C read?
The viability, T/C was 99.3%.

Same assay, conditions: second compound 0.00316 µM; first compound 1 µM; stronger effect = lower value; spheroids with HUVEC and MSC

`C=CC(=O)N1CCN(c2nc(=O)n(-c3c(C)ccnc3C(C)C)c3nc(-c4c(O)cccc4F)c(F)cc23)C(C)C1` (configuration not stated) + CC(Nc1ccc2c(c1)OCCn1cc(N3C(=O)OCC3C(F)F)nc1-2)C(N)=O was tested. Which viability, T/C did it give?
Its viability, T/C is 92.5%.

How did the viability, T/C turn out when `CCN1CCN(Cc2ccc(Nc3ncc(F)c(-c4cc(F)c5nc(C)n(C(C)C)c5c4)n3)nc2)CC1` + CC(Nc1ccc2c(c1)OCCn1cc(N3C(=O)OCC3C(F)F)nc1-2)C(N)=O was run?
The viability, T/C was 89.3%.

`Cn1ncc(Cl)c1-c1cc(C(=O)NC(CN)Cc2cccc(F)c2)sc1Cl` (configuration not stated) + CC(Nc1ccc2c(c1)OCCn1cc(N3C(=O)OCC3C(F)F)nc1-2)C(N)=O was tested. Which viability, T/C did it give?
The viability, T/C was 63.4%.

With `Cn1nccc1Nc1nccc(-c2ccn(C(CO)c3ccc(Cl)c(F)c3)c(=O)c2)n1` (configuration not stated) + CC(Nc1ccc2c(c1)OCCn1cc(N3C(=O)OCC3C(F)F)nc1-2)C(N)=O as the molecule, how does the viability, T/C read?
Its viability, T/C is 91.6%.
